Data set [1] concerns the target T1, Tumor necrosis factor ligand superfamily member 11 (Homo sapiens) (UniProt O14788).
T1 sequence (whole entry): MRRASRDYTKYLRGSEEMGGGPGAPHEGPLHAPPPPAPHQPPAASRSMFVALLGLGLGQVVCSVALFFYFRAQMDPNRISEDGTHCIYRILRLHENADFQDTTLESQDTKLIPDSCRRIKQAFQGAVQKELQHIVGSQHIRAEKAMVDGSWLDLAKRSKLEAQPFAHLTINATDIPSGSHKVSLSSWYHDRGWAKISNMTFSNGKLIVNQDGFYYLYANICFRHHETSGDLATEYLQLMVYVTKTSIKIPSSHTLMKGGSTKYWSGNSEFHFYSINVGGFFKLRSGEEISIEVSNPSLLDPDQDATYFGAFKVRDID
The data set can be described thus: Inhibition of human RANKL-induced osteoclastogenesis in RANKL cultured mouse bone marrow cells assessed as reduction in RANKL/M-CSF-induced TRAP activity preincubated with RANKL for 1 hr followed by cell addition and subsequent media replenishment every 48 hrs for 4 days. In kind it is cell-based. The conditions noted are these: time 4.0 day.

The target in data set [2] is T1, Tumor necrosis factor ligand superfamily member 11 (Homo sapiens). The data set can be described thus: Inhibition of human RANKL-induced osteoclastogenesis in RANKL cultured mouse bone marrow cells assessed as reduction in RANKL/M-CSF-induced TRAP activity at 5 to 10 uM preincubated with RANKL for 1 hr followed by cell addition and subsequent media replenishment every 48 hrs for 4 days. The conditions noted are these: dose microM 5-10, time 4.0 day. In kind it is cell-based.

The target is the same in data set [3]. Put plainly: Inhibition of human soluble RANKL trimerization assessed as increase in RANKL monomer level preincubated for 1 hr followed by DSS addition and measured after 1 hr by SDS-PAGE analysis. The conditions noted are these: time 2.0 hrs.
For data set [4] the target is unchanged. The data set can be described thus: Inhibition of human RANKL-induced osteoclastogenesis in RANKL cultured mouse bone marrow cells assessed as reduction in RANKL/M-CSF-induced TRAP activity at 5 uM preincubated with RANKL for 1 hr followed by cell addition and subsequent media replenishment every 48 hrs for 4 days. The conditions noted are these: time 4.0 day. In kind it is cell-based.

Data set [5] in a line: Therapeutic index, ratio of LC50 for mouse bone marrow cells to IC50 for Inhibition of human RANKL-induced osteoclastogenesis in RANKL cultured mouse bone marrow cells. Format: toxicity. The conditions noted are these: read-out: Ratio LC50/IC50.
Data set [6] deals with T1, Tumor necrosis factor ligand superfamily member 11 (Homo sapiens). Put plainly: Potency index, ratio of SPD-304 Kd to test compound Kd for binding affinity to GST-fused human RANKL extracellular domain (Lys159 to Asp317 residues) expressed in Escherichia coli BL21(DE3) pLysS by fluorescence spectrophotometric assay.
Data set [7] can be described thus: Effect on osteoblast differentiation in mouse MC3T3-E1 cells assessed as change in ALP activity at 2 to 10 uM with media replenishment every 3 days for 14 days. Format: ADME, cell-based. The conditions noted are these: mc3t3-e1, 336 h, dose 2-10 µM, time 14 day.
The target in data set [8] is T1, Tumor necrosis factor ligand superfamily member 11 (Homo sapiens). The data set can be described thus: Inhibition of human RANKL-induced osteoclastogenesis in RANKL cultured mouse bone marrow cells assessed as reduction in phalloidin-labeled actin ring formation at 5 to 10 uM preincubated with RANKL for 1 hr followed by cell addition and subsequent media replenishment every 48 hrs for 4 days by Alexa Fluor 488-conjugated phalloidin/DAPI-staining based fluorescence microscopic analysis. The conditions noted are these: dose microM 5-10, time 4.0 day.

A short description of data set [9]: Cytotoxicity against mouse BMMC assessed as reduction in cell viability measured after 48 hrs by MTT assay. Format: cell-based. The conditions noted are these: mouse BMMC (bone marrow cells), read-out: LC50. (Formazan colour is commonly taken as a measure of viable cells.)
In data set [10] the target is T2, Tumor necrosis factor ligand superfamily member 11 (Homo sapiens, UniProt O14788).
T2 sequence (O14788 whole entry): T1 sequence (whole entry)
Put plainly: Binding affinity to GST-fused human RANKL extracellular domain (Lys159 to Asp317 residues) expressed in Escherichia coli BL21(DE3) pLysS by fluorescence spectrophotometric assay. Particulars: read-out: Kd.

Data set [11] deals with T1, Tumor necrosis factor ligand superfamily member 11 (Homo sapiens). Put plainly: Inhibition of human RANKL-induced osteoclastogenesis in RANKL cultured mouse bone marrow cells assessed as reduction in phalloidin-labeled actin ring formation preincubated with RANKL for 1 hr followed by cell addition and subsequent media replenishment every 48 hrs for 4 days by Alexa Fluor 488-conjugated phalloidin/DAPI-staining based fluorescence microscopic analysis.

For data set [12] the target is unchanged. The data set can be described thus: Inhibition of RANKL (unknown origin) in RANKL cultured mouse RAW264.7 cells assessed as reduction in RANKL/RANK-interaction mediated NFATc1 expression by measuring NFATc1 protein expression at 2 uM preincubated for 1 hr followed by cell culture addition and measured after 2 days by Western blot analysis relative to positive control (reference value: 1). In kind it is cell-based. Particulars: time 49.0 hrs. A general note: In western blotting, separated proteins are transferred to a membrane and probed.

Data set [13] has the same target. The data set can be described thus: Inhibition of RANKL (unknown origin) in RANKL cultured mouse RAW264.7 cells assessed as reduction in RANKL/RANK-interaction mediated NFATc1 expression by measuring NFATc1 protein expression at 5 uM preincubated for 1 hr followed by cell culture addition and measured after 2 days by Western blot analysis relative to positive control (reference value: 1). The conditions noted are these: time 49.0 hrs. Format: cell-based.

The target is the same in data set [14]. The data set can be described thus: Inhibition of RANKL (unknown origin) in RANKL cultured mouse RAW264.7 cells assessed as reduction in RANKL/RANK-interaction mediated cFOS expression by measuring cFOS protein expression at 10 uM preincubated for 1 hr followed by cell culture addition and measured after 2 days by Western blot analysis relative to positive control (reference value: 1). In kind it is cell-based. Particulars: time 49.0 hrs.

Data set [15] shares this target. The data set can be described thus: Inhibition of RANKL (unknown origin) in RANKL cultured mouse RAW264.7 cells assessed as reduction in RANKL/RANK-interaction mediated cFOS expression by measuring cFOS protein expression at 2 uM preincubated for 1 hr followed by cell culture addition and measured after 2 days by Western blot analysis relative to positive control (reference value: 1). Format: cell-based. The conditions noted are these: time 49.0 hrs.

For data set [16] the target is unchanged. Put plainly: Inhibition of RANKL (unknown origin) in RANKL cultured mouse RAW264.7 cells assessed as reduction in RANKL/RANK-interaction mediated NFATc1 expression by measuring NFATc1 protein expression at 10 uM preincubated for 1 hr followed by cell culture addition and measured after 2 days by Western blot analysis relative to positive control (reference value: 1). Format: cell-based. The conditions noted are these: time 49.0 hrs.

The target is the same in data set [17]. Put plainly: Inhibition of RANKL (unknown origin) in RANKL cultured mouse RAW264.7 cells assessed as reduction in RANKL/RANK-interaction mediated cFOS expression by measuring cFOS protein expression at 5 uM preincubated for 1 hr followed by cell culture addition and measured after 2 days by Western blot analysis relative to positive control (reference value: 1). In kind it is cell-based. The conditions noted are these: time 49.0 hrs.

Data set [18] has the same target. Put plainly: Inhibition of human soluble RANKL trimerization assessed as increase in RANKL monomer level at 1:3 ratio of DSS to RANKL preincubated for 1 hr followed by DSS addition and measured after 1 hr by SDS-PAGE analysis. Particulars: time 2.0 hrs.
Data set [19] has the same target. Put plainly: Inhibition of human soluble RANKL trimerization assessed as increase in RANKL monomer level at 1:3 to 1:10 ratio of DSS to RANKL preincubated for 1 hr followed by DSS addition and measured after 1 hr by SDS-PAGE analysis. Particulars: time 2.0 hrs.
Data set [20] relates to BMMC. The data set can be described thus: Cytotoxicity against mouse BMMC assessed as reduction in cell viability at 5 uM measured after 48 hrs by MTT assay. Format: cell-based.
Data set [21] has as its target T1, Tumor necrosis factor ligand superfamily member 11 (Homo sapiens). The data set can be described thus: Inhibition of RANKL (unknown origin) in RANKL cultured mouse RAW264.7 cells assessed as reduction in RANKL/RANK-interaction mediated cFOS expression at 2 to 10 uM preincubated for 1 hr followed by cell culture addition and measured after 2 days by Western blot analysis. Format: cell-based. The conditions noted are these: dose microM 2-10, time 49.0 hrs.

Data set [22] shares this target. The data set can be described thus: Inhibition of RANKL (unknown origin) in RANKL cultured mouse RAW264.7 cells assessed as reduction in RANKL/RANK-interaction mediated NFATc1 expression at 2 to 10 uM preincubated for 1 hr followed by cell culture addition and measured after 2 days by Western blot analysis. In kind it is cell-based. Particulars: dose microM 2-10, time 49.0 hrs.

Five compounds from ChEMBL document CHEMBL4665827, “Discovery of Small-Molecule Inhibitors of Receptor Activator of Nuclear Factor-κB Ligand with a Superior Therapeutic Index” (J Med Chem, 2020) can be followed below.

Broadly, the inhibition is the drop in the measured response relative to a control, in per cent. For orientation: Kd means the free concentration of one partner at which half of the binding sites on the other are occupied at equilibrium, for simple one-to-one binding.

Activity calls are given as the source filed them. The calls are words filed in the database; no cut-off is given here.

In the case of `CN(CCN(C)Cc1cn(S(=O)(=O)c2ccccc2)c2ccccc12)Cc1coc2ccccc2c1=O`, the figures for the inhibition entry in data set [1], in data set [3] and in data set [4] were “Dose-dependent effect”, “Dose-dependent effect” and 100%, respectively. Moreover, the inhibition entry in [2] and in data set [8] was “Active” throughout. In addition, in data set [5], the selectivity ratio worked out at 23.4. The Ratio in data set [6] came to 2.7. The Activity entry in data set [7] is recorded as “Non-Toxic”. Further, the CC50 at 48 h in data set [9] worked out at 58.5 µM. Moreover, the Kd in [10] is 5.24 µM.

As to `CN(CCN(C)C(=O)c1cn(-c2cccc([N+](=O)[O-])c2)c2ccccc12)C(=O)c1coc2ccccc2c1=O`, the inhibition entry was “Dose-dependent effect” in [11], “Dose-dependent effect” in data set [1] and 100% in data set [4]. Further, the fold change (FC) in [12] worked out at 0.66; in data set [13], 0.52; in [14], 0.48; in [15], 0.58; in data set [16] it was 0.39; in data set [17], 0.56. Also, the selectivity ratio in data set [5] is 27.8. In addition, the Activity result in [7] is listed as “Non-Toxic”. Moreover, the CC50 at 48 h in data set [9] came out at 44.2 µM. Moreover, in [10], the equilibrium dissociation constant (Kd) turned out to be 2.18 µM. Moreover, in data set [18], the inhibition entry was “Active”.

For the compound `O=C(c1cn(S(=O)(=O)c2cccc([N+](=O)[O-])c2)c2ccccc12)N1CCN(S(=O)(=O)c2ccccc2)CC1`, the fold change (FC) is 0.82 in [12]; 0.57 in data set [13]; 0.56 in [14]; 0.91 in data set [15]; 0.34 in [16]; 0.63 in [17]. Besides, the selectivity ratio in [5] was 84.8. The CC50 at 48 h in data set [9] turned out to be 123 µM.

As for `Cc1cc2occ(CN(C)CCN(C)Cc3cn(-c4cccc(C(F)(F)F)c4)c4ccccc34)c(=O)c2cc1C`, the inhibition entry in data set [1] is “Dose-dependent effect”. The inhibition entry in data set [19] was “Active”. The selectivity ratio in [5] was found to be 3.2. Moreover, the Activity result in data set [20] is given as “Toxic”. Further, the CC50 at 48 h in [9] was determined as 3.2 µM.

Turning to `CN(CCN(C)C(=O)c1cn(S(=O)(=O)c2ccccc2)c2ccccc12)C(=O)c1coc2ccccc2c1=O`, the inhibition result in [1] is “Dose-dependent effect”; in data set [4], 100%. Further, the inhibition result in data set [21] and in data set [22] was “Active” each time. For the same compound, the selectivity ratio in data set [5] stood at 21.8. Also, the Ratio in data set [6] came out at 3. The Activity result in data set [7] is given as “Non-Toxic”. Besides, in data set [9], the CC50 at 48 h came to 62.3 µM. Also, the equilibrium dissociation constant (Kd) in data set [10] was found to be 4.6 µM.
